Source: patent publication US4521422A, “Aryl and heteroaryl[7-(aryl and heteroaryl)pyrazolo[1,5-a]pyrimidin-3-yl]methanones” (American Cyanamid Company, priority 1984, dated 1985)

What was measured:
[1] = test system: Clonic Seizures Caused by Pentylenetetrazole in Rats; test: Protection against clonic seizures caused by pentylenetetrazole in rats; assay type: in vivo; settings: Rattus norvegicus, oral or i.p., read-out: % of Rats Protected; for responders at 25 mg/kg: pentylenetetrazole 23 mg/kg i.v. at 30 or 60 min
Protocol: The anti-anxiety and anticonvulsant properties of the novel compounds of the present invention have been established in a test which indicates anxiolytic and antiepileptic activity by the measure of protection from convulsions resulting from the administration of pentylenetetrazole. Single or graded dose levels of the test compounds were administered orally or intraperitoneally in a 2% starch vehicle, containing 0.5% v/v polyethylene glycol and one drop of Polysorbate 80 to groups of at least 4 rats. At 30 or 60 minutes, the rats were treated intravenously with pentylenetetrazole at a dose of 23 mg/kg of body weight. This dose is estimated to cause clonic seizures in 99% of unprotected rats. It has been reported [R. T. Hill and D. H. Tedeschi, "Animal Testing and Screening Procedures in Evaluating Psychotropic Drugs" in "An Introduction to Psychopharmacology", Eds. R. R. Rech and K. E. Moore, Raven Press, New York, pp 237-288 (1971)] that there is a high degree of correlation between antagonism of pentylenetetrazole seizures in rats and anti-anxietyor anticonvulsant effects in higher warm-blooded animals.

[2] = test system: Brain-Specific Receptors of Rats; test: Inhibition of the binding of 3H-benzodiazepine to brain-specific receptors of rats; parameters: species or system rat (Wistar); settings: 3H-diazepam 1.5 nM or 3H-flunitrazepam 1.0 nM; rat cortex P2 fraction; test concentration not given
[3] = test system: Nonconditioned Passive Avoidance in Rats; test: Nonconditioned passive avoidance (conflict) test in rats; assay type: in vivo, rat (Wistar); parameters: key: Active: considered active if the number of shocks received by the test group is significantly higher than the control group by the Mann-Witney U test; settings: oral or i.p.
Protocol: Another test which has been used to assess anti-anxiety effects is a nonconditioned passive avoidance procedure described by [J. R. Vogel, B. Beer and D. E. Clody, "A Simple and Reliable Conflict Procedure for Testing Anti-Anxiety Agents", Psychopharmacologia, 21, 1-7 (1971)]. A conflict situation is induced in rats by a modification of this method.
Groups of 6 naive, Wistar strain rats, weighing 200-240 g each were deprived of water for 48 hours and food for 24 hours. The test compounds were administered in single or graded, oral or intraperitoneal doses, suspended in a 2% starch vehicle containing 0.5% v/v polyethylene glycol and one drop of polysorbate 80. Control animals received the vehicle alone. At 30 to 60 minutes each rat was placed in an individual plexiglass chamber. Water was available ad libitum from a tap located in the rear of the chamber. A 0.7 milliampere DC shocking current was established between the stainless steel grid floor and the tap. After 20 licks of non-shocked drinking, a shock was delivered for 2 seconds and then further shocks were delivered on a ratio of one shock for 2 seconds for every 20 licks. This was continued for a total of 3 minutes. The number of shocks taken by each rat during the 3 minute interval was recorded and compared to a control group. […]

[4] = pentylenetetrazole 23 mg/kg i.v.

SMILES: O=C(c1ccc(F)cc1)c1cnn2c(-c3ccccn3)ccnc12 [(4-fluorophenyl)[7-(2-pyridinyl)pyrazolo[1,5-a]pyrimidin-3-yl]methanone]
- responders at 25 mg/kg [1]: 50%
- % Inhibition [2]: 17%

SMILES: O=C(c1ccccc1)c1cnn2c(-c3cc(Cl)cc(Cl)c3)ccnc12 [[7-(3,5-dichlorophenyl)pyrazolo[1,5-a]pyrimidin-3-yl]phenyl-methanone]
- responders at 25 mg/kg [1]: 25%
- % Inhibition [2]: 20%

SMILES: Cc1cc(-c2ccc(Cl)c(Cl)c2)n2ncc(C(=O)c3ccccc3)c2n1 [[7-(3,4-dichlorophenyl)-5-methylpyrazolo[1,5-a]pyrimidin-3-yl]phenyl-methanone]
- responders at 25 mg/kg [1]: 25%
- % Inhibition [2]: 97%

SMILES: CCC(=O)N(C)c1cccc(-c2ccnc3c(C(=O)c4ccccc4)cnn23)c1 [N-[3-(3-Benzoylpyrazolo[1,5-a]pyrimidin-7-yl)phenyl]-N-methylpropanamide]
- responders at 0.8 mg/kg [1, 4]: 100%
- Result (nonconditioned passive avoidance) ([3]; dose 1.5 mg/kg): Active

SMILES: O=C(c1ccc(F)cc1)c1cnn2c(-c3ccccc3F)ccnc12 [(4-fluorophenyl)[7-(2-fluorophenyl)pyrazolo[1,5-a]pyrimidin-3-yl]methanone]
- responders at 25 mg/kg [1]: 50%
- % Inhibition [2]: 22%

SMILES: CCNc1cccc(-c2ccnc3c(C(=O)c4ccccc4)cnn23)c1 [[7-[3-(Ethylamino)phenyl]pyrazolo[1,5-a]pyrimidin-3-yl]phenylmethanone]
- responders at 25 mg/kg [1]: 100%
- Result (nonconditioned passive avoidance) ([3]; dose 25.0 mg/kg): Active

SMILES: Cc1cc(-c2cc[n+]([O-])cc2)n2ncc(C(=O)c3ccccc3)c2n1 [[5-Methyl-7-(4-pyridinyl)pyrazolo[1,5-a]pyrimidin-3-yl]phenyl-methanone, pyridine-1-oxide]
- responders at 25 mg/kg [1]: 25%
- % Inhibition [2]: 52%

SMILES: CC(=O)N(C)c1cccc(-c2ccnc3c(C(=O)c4ccco4)cnn23)c1 [N-[3-[3-(2-Furancarbonyl)pyrazolo[1,5-a]pyrimidin-7-yl]phenyl]-N-methylacetamide]
- responders at 25 mg/kg [1]: 100%
- Result (nonconditioned passive avoidance) ([3]; dose 25.0 mg/kg): Active

SMILES: O=C(c1ccncc1)c1cnn2c(-c3cccnc3)ccnc12 [4-pyridinyl[7-(3-pyridinyl)pyrazolo[1,5-a]pyrimidin-3-yl]methanone]
- responders at 25 mg/kg [1]: 100%
- Result (nonconditioned passive avoidance) ([3]; dose 25.0 mg/kg): Active

SMILES: O=C(c1ccncc1)c1cnn2c(-c3cccc(C(F)(F)F)c3)ccnc12 [4-pyridinyl[7-[3-(trifluoromethyl)phenyl]pyrazolo[1,5-a]pyrimidin-3-yl]methanone]
- responders at 25 mg/kg [1]: 100%
- Result (nonconditioned passive avoidance) ([3]; dose 25.0 mg/kg): Active

SMILES: CCC(=O)N(CC)c1cccc(-c2ccnc3c(C(=O)c4ccco4)cnn23)c1 [N-Ethyl-N-[3-[3-(2-furanylcarbonyl)pyrazolo[1,5-a]pyrimidin-7-yl]phenyl]propanamide]
- Result (nonconditioned passive avoidance) ([3]; dose 12.5 mg/kg): Active

SMILES: Cc1cnc2c(C(=O)c3ccccc3)cnn2c1-c1ccccc1 [(6-methyl-7-phenylpyrazolo[1,5-a]pyrimidin-3-yl)phenyl-methanone]
- responders at 25 mg/kg [1]: 25%
- % Inhibition [2]: 24%

SMILES: Cc1ccc(C(=O)c2cnn3c(-c4ccncc4)ccnc23)cc1 [(4-methylphenyl)[7-(4-pyridinyl)pyrazolo[1,5-a]pyrimidin-3-yl]methanone]
- responders at 25 mg/kg [1]: 50%
- % Inhibition [2]: 19%

SMILES: CCc1ccc(C(=O)c2cnn3c(-c4cccnc4)ccnc23)cc1 [(4-ethylphenyl)[7-(3-pyridinyl)pyrazolo[1,5-a]pyrimidin-3-yl]methanone]
- responders at 25 mg/kg [1]: 100%
- Result (nonconditioned passive avoidance) ([3]; dose 25.0 mg/kg): Active

SMILES: Cc1cccc(C(=O)c2cnn3c(-c4cccc(C(F)(F)F)c4)ccnc23)c1 [(3-methylphenyl)[7-[3-(trifluoromethyl)phenyl]pyrazolo[1,5-a]pyrimidin-3-yl]methanone]
- responders at 25 mg/kg [1]: 25%
- % Inhibition [2]: 67%

SMILES: CC(=O)N(C)c1cccc(-c2ccnc3c(C(=O)c4ccccc4)cnn23)c1 [N-[3-(3-Benzoylpyrazolo[1,5-a]pyrimidin-7-yl)phenyl]-N-methylacetamide]
- responders at 0.8 mg/kg [1, 4]: 75%
- Result (nonconditioned passive avoidance) ([3]; dose 3.1 mg/kg): Active

SMILES: O=C(c1ccc(F)cc1)c1cnn2c(-c3cccnc3)ccnc12 [(4-fluorophenyl)[7-(3-pyridinyl)pyrazolo[1,5-a]pyrimidin-3-yl]methanone]
- responders at 25 mg/kg [1]: 63%
- Result (nonconditioned passive avoidance) ([3]; dose 25.0 mg/kg): Active

SMILES: CCN(C(C)=O)c1cccc(-c2ccnc3c(C(=O)c4ccco4)cnn23)c1 [N--ethyl-N--[3-[3-(2-furanylcarbonyl)pyrazolo[1,5-a]pyrimidin-7-yl]phenyl]acetamide]
- responders at 12.5 mg/kg ([1]; dose 12.5 mg/kg, pentylenetetrazole 23 mg/kg i.v.): 100%
- Result (nonconditioned passive avoidance) ([3]; dose 12.5 mg/kg): Active

SMILES: O=C(c1ccc2c(c1)OCO2)c1cnn2c(-c3cccnc3)ccnc12 [1,3-benzodioxol-5-yl[7-(3-pyridinyl)pyrazolo[1,5-a]pyrimidin-3-yl]methanone]
- responders at 25 mg/kg [1]: 50%
- Result (nonconditioned passive avoidance) ([3]; dose 25.0 mg/kg): Active

SMILES: CC(=O)N(C)c1ccc(-c2ccnc3c(C(=O)c4ccccc4)cnn23)cc1 [N--[4-(3-benzoylpyrazolo[1,5-a]pyrimidin-7-yl)phenyl]-N--methylacetamide]
- Result (nonconditioned passive avoidance) ([3]; dose 25.0 mg/kg): Active

SMILES: Cc1ccc(C(=O)c2cnn3c(-c4cccc(C(F)(F)F)c4)ccnc23)cc1 [(4-methylphenyl)[7-[3-(trifluoromethyl)phenyl]pyrazolo[1,5-a]pyrimidin-3-yl]methanone]
- responders at 25 mg/kg [1]: 50%
- Result (nonconditioned passive avoidance) ([3]; dose 12.5 mg/kg): Active

SMILES: O=C(c1ccccc1F)c1cnn2c(-c3cccnc3)ccnc12 [(2-fluorophenyl)[7-(3-pyridinyl)pyrazolo[1,5-a]pyrimidin-3-yl]methanone]
- responders at 25 mg/kg [1]: 100%
- Result (nonconditioned passive avoidance) ([3]; dose 25.0 mg/kg): Active

SMILES: Cc1cccc(C(=O)c2cnn3c(-c4cccc(C)c4)ccnc23)c1 [(3-methylphenyl)[7-(3-methylphenyl)pyrazolo[1,5-a]pyrimidin-3-yl]methanone]
- responders at 25 mg/kg [1]: 25%
- % Inhibition [2]: 75%

SMILES: CN(C)c1ccc(C(=O)c2cnn3c(-c4cccnc4)ccnc23)cc1 [[4-(dimethylamino)phenyl][7-(3-pyridinyl)pyrazolo[1,5-a]pyrimidin-3-yl]methanone]
- responders at 25 mg/kg [1]: 100%
- Result (nonconditioned passive avoidance) ([3]; dose 25.0 mg/kg): Active

SMILES: COc1cccc(C(=O)c2cnn3c(-c4cccnc4)ccnc23)c1 [(3-methoxyphenyl)[7-(3-pyridinyl)pyrazolo[1,5-a]pyrimidin-3-yl]methanone]
- responders at 25 mg/kg [1]: 75%
- Result (nonconditioned passive avoidance) ([3]; dose 25.0 mg/kg): Active

SMILES: O=C(c1ccsc1)c1cnn2c(-c3cccnc3)ccnc12 [[7-(3-pyridinyl)pyrazolo[1,5-a]pyrimidin-3-yl]-3-thienylmethanone]
- responders at 25 mg/kg [1]: 50%
- Result (nonconditioned passive avoidance) ([3]; dose 25.0 mg/kg): Active

SMILES: Cc1nn2c(-c3cccnc3)ccnc2c1C(=O)c1ccccc1 [[2-methyl-7-(3-pyridinyl)pyrazolo[1,5-a]pyrimidin-3-yl]phenyl-methanone]
- responders at 25 mg/kg [1]: 50%
- % Inhibition [2]: 52%

SMILES: O=C(c1cccs1)c1cnn2c(-c3cccnc3)ccnc12 [[7-(3-pyridinyl)pyrazolo[1,5-a]pyrimidin-3-yl]-2-thienyl-methanone]
- responders at 25 mg/kg [1]: 75%
- % Inhibition [2]: 82%

SMILES: COc1ccc(C(=O)c2cnn3c(-c4cccc(C(F)(F)F)c4)ccnc23)cc1OC [(3,4-dimethoxyphenyl)[7-[3-(trifluoromethyl)phenyl]pyrazolo[1,5-a]pyrimidin-3-yl]methanone]
- responders at 25 mg/kg [1]: 50%
- % Inhibition [2]: 94%

SMILES: COc1ccc(-c2cc(C)nc3c(C(=O)c4ccc(F)cc4)cnn23)cc1OC [[7-(3,4-dimethoxyphenyl)-5-methylpyrazolo[1,5-a]pyrimidin-3-yl](4-fluorophenyl)methanone]
- responders at 25 mg/kg [1]: 25%
- % Inhibition [2]: 48%

SMILES: O=C(c1ccc(Cl)cc1)c1cnn2c(-c3cccnc3)ccnc12 [(4-chlorophenyl)[7-(3-pyridinyl)pyrazolo[1,5-a]pyrimidin-3-yl]methanone]
- % Inhibition [2]: 87%

SMILES: O=C(c1ccccn1)c1cnn2c(-c3cccs3)ccnc12 [2-pyridinyl[7-(2-thienyl)pyrazolo[1,5-a]pyrimidin-3-yl]methanone]
- % Inhibition [2]: 24%
